The values below come from patent US7348336B2 (Sanofi-Aventis Deutschland GmbH, priority 2000, dated 2008).

Where a name gives a salt, the structure may show the parent alone. Read-outs that look alike come from different tables or passages of the source.

One assay concerns the target T1, IκBα-kinase complex (Homo sapiens, UniProt O14920+O15111).
T1 construct: endogenous in cells; host or cells: HeLa S3 cell extract, S100 fraction; ammonium sulfate precipitation and Superose-6 size exclusion
Description: IkB-Kinase ELISA.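 Note: substrate phosphopeptide captured on Protein-A plates, detected with Streptavidin-HRP and TMB absorbance at 450 nm, activity read from a synthetic phosphopeptide standard curve.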 The assay is classed as biochemical. (An ELISA detects its analyte on a solid surface through an enzyme-linked reagent.)

The subject of assay [1] is cardiac allograft (BALB/c->C57BL/6 or B6/129). Description: Mouse heterotopic cardiac transplant model. The settings on record: oral, 25 mg/kg/day for 14 days, starting at transplantation; mean±SD. The assay is classed as in vivo. From the text:
Mouse Heterotopic Cardiac Transplant Model
In the mouse heterotopic cardiac transplant model across full histocompatibility barriers (BALB/c->C57BL/6 or B6/129), graft survival is typically limited to 7.3±0.4 days (mean±SD, n0 allografts) (see for example in Hancock W W, Sayegh M H, Zheng X G, Peach R, Linsley P S, Turka L A. Costimulatory function and expression of CD40-ligand, CD80 and CD86 or in vascularized murine cardiac allograft rejection. Proc Natl Acad Sci (USA) 93, 1996, 13967-13972; and Hancock W W, Buelow R, Sayegh M H, Turka L A. Antibody-induced transplant arteriosclerosis is prevented by graft expression of anti-oxidant and anti-apoptotic genes. Nature Med 4, 1998, 1392-1396).
The effects of oral administration of the compounds according to examples 49 and 60 were tested using 25 mg/kg/day for 14 days, starting at transplantation in said animal model. Whereas grafts in animals receiving the carrier, methyl-cellulose, rejected by 7 days (6.7±0.8), grafts in compound 49-treated mice survived around 15 days (15.3±0.6), and grafts in those given compound 60 survived for 20 days (20±1). Current immunosuppressive therapies used in transplantation have limited efficacy and/or considerable toxicity.

Where [2] appears, read: activated IκBα kinase complex from HeLa S3 cell extracts, ELISA, read-out: IkB-kinase IC50.

T1 sequence (O14920 whole entry): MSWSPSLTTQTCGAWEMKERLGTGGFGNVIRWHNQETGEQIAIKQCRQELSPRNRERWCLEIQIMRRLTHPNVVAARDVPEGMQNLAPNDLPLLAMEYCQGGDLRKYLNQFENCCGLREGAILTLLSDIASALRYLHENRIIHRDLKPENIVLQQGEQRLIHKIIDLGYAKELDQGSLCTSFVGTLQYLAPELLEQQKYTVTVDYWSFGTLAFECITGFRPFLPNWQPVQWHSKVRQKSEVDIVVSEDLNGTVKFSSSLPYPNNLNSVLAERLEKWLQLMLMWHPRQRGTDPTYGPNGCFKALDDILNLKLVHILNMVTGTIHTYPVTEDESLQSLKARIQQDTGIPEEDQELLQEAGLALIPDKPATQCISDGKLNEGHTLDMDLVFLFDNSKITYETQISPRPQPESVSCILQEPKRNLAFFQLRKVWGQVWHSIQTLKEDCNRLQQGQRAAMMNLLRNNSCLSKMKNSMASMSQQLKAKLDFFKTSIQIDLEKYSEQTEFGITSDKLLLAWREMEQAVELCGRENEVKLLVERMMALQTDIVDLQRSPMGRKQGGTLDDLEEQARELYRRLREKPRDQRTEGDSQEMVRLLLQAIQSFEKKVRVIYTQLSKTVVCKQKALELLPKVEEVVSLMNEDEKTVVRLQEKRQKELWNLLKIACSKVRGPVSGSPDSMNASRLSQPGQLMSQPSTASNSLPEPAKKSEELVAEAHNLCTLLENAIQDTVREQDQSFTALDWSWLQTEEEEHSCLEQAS
T1 sequence (O15111 whole entry): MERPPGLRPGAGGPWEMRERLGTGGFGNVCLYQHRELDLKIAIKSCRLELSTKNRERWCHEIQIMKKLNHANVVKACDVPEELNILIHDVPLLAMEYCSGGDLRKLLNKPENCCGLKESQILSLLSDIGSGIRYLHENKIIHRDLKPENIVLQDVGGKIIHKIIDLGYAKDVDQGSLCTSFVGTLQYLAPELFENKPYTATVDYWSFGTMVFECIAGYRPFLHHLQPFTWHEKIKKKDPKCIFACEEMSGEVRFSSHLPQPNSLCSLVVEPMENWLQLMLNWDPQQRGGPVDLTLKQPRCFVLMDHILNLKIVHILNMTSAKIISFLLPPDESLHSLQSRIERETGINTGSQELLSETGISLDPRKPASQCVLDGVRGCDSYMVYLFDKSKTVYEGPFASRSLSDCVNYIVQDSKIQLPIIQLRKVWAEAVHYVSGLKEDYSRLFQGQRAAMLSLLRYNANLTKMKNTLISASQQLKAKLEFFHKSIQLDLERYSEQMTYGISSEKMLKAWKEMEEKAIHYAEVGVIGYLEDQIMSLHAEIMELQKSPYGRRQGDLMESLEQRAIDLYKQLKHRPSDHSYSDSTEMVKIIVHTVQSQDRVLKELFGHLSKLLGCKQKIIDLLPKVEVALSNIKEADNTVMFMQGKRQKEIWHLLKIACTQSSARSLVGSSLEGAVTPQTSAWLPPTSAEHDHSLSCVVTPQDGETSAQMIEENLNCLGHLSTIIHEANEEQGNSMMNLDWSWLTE
T1 sequence (Q9Y6K9 whole entry partner): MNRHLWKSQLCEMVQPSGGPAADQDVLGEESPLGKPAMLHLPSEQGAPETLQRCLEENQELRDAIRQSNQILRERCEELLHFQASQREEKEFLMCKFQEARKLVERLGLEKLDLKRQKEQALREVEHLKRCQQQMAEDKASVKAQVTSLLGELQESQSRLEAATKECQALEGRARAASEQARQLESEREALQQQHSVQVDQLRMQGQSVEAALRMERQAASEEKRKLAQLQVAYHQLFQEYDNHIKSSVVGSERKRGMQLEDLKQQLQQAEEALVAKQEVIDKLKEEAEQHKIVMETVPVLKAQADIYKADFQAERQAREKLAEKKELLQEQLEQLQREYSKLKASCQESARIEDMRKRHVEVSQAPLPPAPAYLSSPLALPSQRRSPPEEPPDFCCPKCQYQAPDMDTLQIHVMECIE

By IC50 is commonly meant the concentration at which inhibition is half-maximal. `O=C(Nc1cc(Cl)cc2c1[nH]c1cnccc12)c1ccc(F)cc1` [Example 49, trifluoroacetate]: the half-inhibitory concentration (IC50) on IκBα-kinase complex (setting [2]) amounted to 220 nM. For the same compound, the graft survival in assay [1] amounted to 15.3 ± 0.6 days.

`O=C(Cc1ccccn1)Nc1cc(Cl)cc2c1[nH]c1cnccc12` [Example 108]: the IC50 on IκBα-kinase complex (setting [2]) came out at 2100 nM.

Take `O=C(Nc1cc(Cl)cc2c1[nH]c1cnccc12)c1cccc(=O)[nH]1` [Example 109]: on IκBα-kinase complex (setting [2]), the half-maximal inhibitory concentration (IC50) amounted to 2100 nM.

Take `O=C1CC[C@H](C(=O)Nc2cc(Cl)cc3c2[nH]c2cnccc23)O1` [Example 111]: the IC50 on IκBα-kinase complex (setting [2]) was determined as 540 nM.

Consider `O=S(=O)(Nc1cc(Cl)cc2c1[nH]c1cnccc12)c1ccc(F)cc1` [Example 112], for which, on IκBα-kinase complex (setting [2]), the concentration for half-maximal inhibition (IC50) was determined as 930 nM.

Take `O=C(Nc1cc(Cl)cc2c1[nH]c1cnccc12)c1ccc(Br)cc1` [Example 113]: the half-maximal inhibitory concentration (IC50) at IκBα-kinase complex (setting [2]) is 640 nM.

In the case of `COc1c(Cl)cc2c([nH]c3cnccc32)c1NC(=O)c1ccc(F)cc1` [Example 114], the concentration for half-maximal inhibition (IC50) at IκBα-kinase complex (setting [2]) was determined as 2100 nM.

Consider `O=C(Nc1c(O)c(Cl)cc2c1[nH]c1cnccc12)c1cccnc1` [Example 115], for which the 50% inhibitory concentration (IC50) on IκBα-kinase complex (setting [2]) is 4600 nM.

On to `O=C(Nc1cc(Cl)cc2c1[nH]c1cnccc12)c1ccc(Cl)cc1` [Example 116], for which the half-inhibitory concentration (IC50) on IκBα-kinase complex (setting [2]) is 1800 nM.

For the compound `O=C(Nc1cc(Cl)cc2c1[nH]c1cnccc12)C1CCCC1` [Example 117], at IκBα-kinase complex (setting [2]), the half-maximal inhibitory concentration (IC50) turned out to be 670 nM.

Regarding `COc1c(Cl)cc2c([nH]c3cnccc32)c1NC(=O)c1ccc(Cl)nc1` [Example 118], the IC50 on IκBα-kinase complex (setting [2]) turned out to be 120 nM.

As for `COc1c(Cl)cc2c([nH]c3cnccc32)c1NC(=O)c1ccno1` [Example 119], the IC50 at IκBα-kinase complex (setting [2]) is 600 nM.

With `COc1c(Cl)cc2c([nH]c3cnccc32)c1NC(=O)c1ccc(F)c(F)c1` [Example 120], on IκBα-kinase complex (setting [2]), the IC50 is 400 nM.

Consider `Nc1ccc(C(=O)Nc2cc(Cl)cc3c2[nH]c2cnccc23)cn1` [Example 121], for which the IC50 at IκBα-kinase complex (IkB-kinase, unit inferred, read-out: IC50) worked out at 1700 nM.
